Source: US12582641B2, “Sulfur-containing compound based on glutarimide skeleton and application thereof” (SHANGHAITECH UNIVERSITY, priority 2019, dated 2026)

System: MM.1S cells
Experiment: Proliferation inhibition (IC50) in MM.1S cells, cell viability assay
Conditions: Homo sapiens, MM1.S, 72 h, read-out: IC50 (nM), proliferation inhibitory activity of MM.1S cells (half inhibitory concentration)
Protocol: MM.1S (B lymphoblast) was purchased from ATCC. Complete medium was RPMI1640 supplemented with 10% FBS and 1% Penicillin-Streptomycin. The cells used were identified as correct cells by STR cells, and were negative for mycoplasma through routine inspections.
IC50 values of the compounds of the present disclosure were measured using Cell Titer Blue, Cell Titer GLO, or WST reagent from Promega Company. Assay details are as follows: Cells were seeded in 100 μL RPMI1640 complete medium containing serum at a density of 15,000 cells/well. After 24 h, the inoculated cells were treated with diluted commercial inhibitor and the compounds of the present disclosure to be tested after serial dilution. After the cells were treated with the compounds of the present disclosure to be tested for 72 h, cell viability was determined after adding the cell viability detection kit listed above according to the reagent operating instructions. The negative control was DMSO, and the positive control was a commercial inhibitor, both of which were used to treat the cells through the same method as that of the compounds of the present disclosure. The growth inhibition of the compounds of the present disclosure on cells was plotted by Prism Graphpad software, and the IC50 values of the compounds of the present disclosure were calculated therefrom.
We tested the activities of the compounds of the present invention in MM.1S cell (which overexpressed IKZF1/3 and is highly sensitive to immunomodulatory drugs) through a dose-dependent manner. The cells were treated with the compounds of the present invention at 10 different successively decreasing concentrations (starting at the highest concentration of 10 μM; 5-fold serial dilutions) for 72 h, and then the cell viability determination was performed in accordance with CCK-8 reagent operating instructions. The experiment was repeated more than three times.

Q: Which IC50 does the source give for O=C1CCC(N2Cc3c(SCc4ccc(CNC56CC7CC(CC(C7)C5)C6)cc4)cccc3C2=O)C(=O)N1 (stereo not drawn) [SIAIS1221003, 3-(4-((4-(((adamantan-1-yl)amino)methyl)benzyl)thio)-1-oxoisoindolin-2-yl)piperidine-2,6-dione] here?
A: 0.024 ± 0.01 nM

Q: With O=C1CCC(N2Cc3c(SCc4ccc(CNCC5CCCCC5)cc4)cccc3C2=O)C(=O)N1 (stereo not drawn) [SIAIS1222187, 3-(4-((4-(((cyclohexylmethyl)amino)methyl)benzyl)thio)-1-oxoisoindolin-2-yl)piperidine-2,6-dione] as the compound, how does the IC50 read?
A: 0.005 nM

Q: Cc1ccc(NC(=O)NCCCCCCCCSc2cccc3c2CN(C2CCC(=O)NC2=O)C3=O)cc1Cl (stereo not drawn) [SIAIS269072, 1-(3-chloro-4-methylphenyl)-3-(8-((2-(2,6-dioxopiperidin-3-yl)-1-oxoisoindolin-4-yl)thio)octyl)urea] was tested. Which IC50 did it give?
A: 0.468 nM

Q: How did the IC50 turn out when O=C1CCC(N2Cc3c(SCCc4ccc(CNC5CCCCC5)cc4)cccc3C2=O)C(=O)N1 (stereo not drawn) [SIAIS1227007, 3-(4-((4-((cyclohexylamino)methyl)phenethyl)thio)-1-oxoisoindolin-2-yl)piperidine-2,6-dione] was run?
A: 0.67 ± 0.27 nM

Q: How did the IC50 turn out when O=C1CCC(N2Cc3c(SCc4ccc(CNC56CC7CC(CC(O)(C7)C5)C6)cc4)cccc3C2=O)C(=O)N1 (stereo not drawn) [SIAIS1227061, 3-(4-((4-(((3-hydroxyadamantan-1-yl)amino)methyl)benzyl)thio)-1-oxoisoindolin-2-yl)piperidine-2,6-dione] was run?
A: 0.721 nM

Q: With O=C1CCC(N2Cc3c(SCCCCCCNC4C5CC6CC(C5)CC4C6)cccc3C2=O)C(=O)N1 (stereo not drawn) [SIAIS1220179, 3-(4-((6-((adamantan-2-yl)amino)hexyl)thio)-1-oxoisoindolin-2-yl)piperidine-2,6-dione] as the compound, how does the IC50 read?
A: 0.036 ± 0.01 nM

Q: For CC1CC(C)CN(CCc2ccc(CSc3cccc4c3CN(C3CCC(=O)NC3=O)C4=O)cc2)C1 (stereo not drawn) [SIAIS1227165, 3-(4-((4-(2-(3,5-dimethylpiperidin-1-yl)ethyl)benzyl)thio)-1-oxoisoindolin-2-yl)piperidine-2,6-dione], which IC50 is on record?
A: 0.023 nM

Q: How did the IC50 turn out when O=C1CCC(N2Cc3c(SCc4ccc(CN5C[C@H]6CCCC[C@H]6C5)cc4)cccc3C2=O)C(=O)N1 (stereo partly drawn) [SIAIS1227171, 3-(4-((4-(((3aR,7aS)-octahydro-2H-isoindol-2-yl)methyl)benzyl)thio)-1-oxoisoindolin-2-yl)piperidine-2,6-dione] was run?
A: 0.021 nM

Q: O=C1CCC(N2Cc3c(SCc4nc(CN5CCOCC5)cs4)cccc3C2=O)C(=O)N1 (stereo not drawn) [SIAIS313169, 3-(4-(((4-(morpholinomethyl)thiazol-2-yl)methyl)thio)-1-oxoisoindolin-2-yl)piperidine-2,6-dione] was tested. Which IC50 did it give?
A: 5.03 ± 2.13 nM

Q: How did the IC50 turn out when O=C1CCC(N2Cc3c(SCCCCCCCCNc4ncnc5ccccc45)cccc3C2=O)C(=O)N1 (stereo not drawn) [SIAIS264011, 3-(1-oxo-4-((8-(quinazolin-4-ylamino)octyl)thio)isoindolin-2-yl)piperidine-2,6-dione] was run?
A: 0.34 nM

Q: How did the IC50 turn out when O=C1CCC(N2Cc3c(SCc4ccc(CCN5CCSCC5)cc4)cccc3C2=O)C(=O)N1 (stereo not drawn) [SIAIS1227051, 3-(1-oxo-4-((4-(2-thiomorpholinoethyl)benzyl)thio)isoindolin-2-yl)piperidine-2,6-dione] was run?
A: 0.004 ± 0.002 nM

Q: How did the IC50 turn out when O=C1CCC(N2Cc3c(SCCCCCCNC(=O)C45CC6CC(CC(C6)C4)C5)cccc3C2=O)C(=O)N1 (stereo not drawn) [SIAIS1222143, N-(6-((2-(2,6-dioxopiperidin-3-yl)-1-oxoisoindolin-4-yl)thio)hexyl)adamantane-1-carboxamide] was run?
A: 0.07 nM

Q: With O=C1CCC(N2Cc3c(SCc4ccc(CN5CCC(F)(F)CC5)cc4)cccc3C2=O)C(=O)N1 (stereo not drawn) [SIAIS1227167, 3-(4-((4-((4,4-difluoropiperidin-1-yl)methyl)benzyl)thio)-1-oxoisoindolin-2-yl)piperidine-2,6-dione] as the compound, how does the IC50 read?
A: 0.064 nM

Q: With O=C1CCC(N2Cc3c(SCc4ccc(CN5CCC6(CCCCC6)CC5)cc4)cccc3C2=O)C(=O)N1 (stereo not drawn) [SIAIS1227119, 3-(4-((4-((3-azaspiro[5.5]undecan-3-yl)methyl)benzyl)thio)-1-oxoisoindolin-2-yl)piperidine-2,6-dione] as the compound, how does the IC50 read?
A: 0.2 nM

Q: For O=C1CCC(N2Cc3c(SCCCCCCCNC45CC6CC(CC4C6)C5)cccc3C2=O)C(=O)N1 (stereo not drawn) [SIAIS1228055, 3-(4-((7-((hexahydro-2,5-methanopentalen-3a(1H)-yl)amino)heptyl)thio)-1-oxoisoindolin-2-yl)piperidine-2,6-dione], which IC50 is on record?
A: 0.028 nM

Q: With O=C1CCC(N2Cc3c(SCc4ccc(CN(C5CCCCC5)C5CCCCC5)cc4)cccc3C2=O)C(=O)N1 (stereo not drawn) [SIAIS1227059, 3-(4-((4-((dicyclohexylamino)methyl)benzyl)thio)-1-oxoisoindolin-2-yl)piperidine-2,6-dione] as the compound, how does the IC50 read?
A: 0.022 nM

Q: Which IC50 does the source give for O=C1CCC(N2Cc3c(SCc4csc(CN5CCOCC5)n4)cccc3C2=O)C(=O)N1 (stereo not drawn) [SIAIS313163, 3-(4-(((2-(morpholinomethyl)thiazol-4-yl)methyl)thio)-1-oxoisoindolin-2-yl)piperidine-2,6-dione] here?
A: 9.38 ± 1.37 nM

Q: O=C1CCC(N2C(=O)c3ccc(SCCCCCCCNC45CC6CC(CC(C6)C4)C5)cc3C2=O)C(=O)N1 (stereo not drawn) [SIAIS1221075, 5-((7-((adamantan-1-yl)amino)heptyl)thio)-2-(2,6-dioxopiperidin-3-yl)isoindoline-1,3-dione] was tested. Which IC50 did it give?
A: 15.8 nM

Q: With O=C1CCC(N2Cc3c(SCc4ccc(CN5CCC6(CC5)CC6)cc4)cccc3C2=O)C(=O)N1 (stereo not drawn) [SIAIS1227115, 3-(4-((4-((6-azaspiro[2.5]octan-6-yl)methyl)benzyl)thio)-1-oxoisoindolin-2-yl)piperidine-2,6-dione] as the compound, how does the IC50 read?
A: 0.04 ± 0.01 nM

Q: With CN1C(=O)CCC(N2Cc3c(SCCCCCCCNC45CC6CC(CC(C6)C4)C5)cccc3C2=O)C1=O (stereo not drawn) [SIAIS1221149, 3-(4-((7-(adamantan-1-ylamino)heptyl)thio)-1-oxoisoindolin-2-yl)-1-methylpiperidine-2,6-dione] as the compound, how does the IC50 read?
A: 21.9 nM

Q: O=C1CCC(N2Cc3c(SCCCCCCCN4CCCCC4)cccc3C2=O)C(=O)N1 (stereo not drawn) [SIAIS1220105, 3-(1-oxo-4-((7-(piperidin-1-yl)heptyl)thio)isoindolin-2-yl)piperidine-2,6-dione] was tested. Which IC50 did it give?
A: 0.06 nM

Q: O=C1CCC(N2C(=O)c3cccc(SCCCCCCNC45CC6CC(CC(C6)C4)C5)c3C2=O)C(=O)N1 (stereo not drawn) [SIAIS1222109, 4-((6-((adamantan-1-yl)amino)hexyl)thio)-2-(2,6-dioxopiperidin-3-yl)isoindoline-1,3-dione] was tested. Which IC50 did it give?
A: 0.404 nM

Q: With CS(=O)(=O)N1CCN(CCCCCCCSc2cccc3c2CN(C2CCC(=O)NC2=O)C3=O)CC1 (stereo not drawn) [SIAIS1224039, 3-(4-((7-(4-(methylsulfonyl)piperazin-1-yl)heptyl)thio)-1-oxoisoindolin-2-yl)piperidine-2,6-dione] as the compound, how does the IC50 read?
A: 0.54 nM

Q: How did the IC50 turn out when O=C1CCC(N2C(=O)c3cccc(SCCCCCCCNC45CC6CC(CC(C6)C4)C5)c3C2=O)C(=O)N1 (stereo not drawn) [SIAIS1221069, 4-((7-((adamantan-1-yl)amino)heptyl)thio)-2-(2,6-dioxopiperidin-3-yl)isoindoline-1,3-dione] was run?
A: 0.02 nM

Q: O=C1CCC(N2Cc3c(SCc4ccc(CCCNC5CCCCC5)cc4)cccc3C2=O)C(=O)N1 (stereo not drawn) [SIAIS1227045, 3-(4-((4-(3-(cyclohexylamino)propyl)benzyl)thio)-1-oxoisoindolin-2-yl)piperidine-2,6-dione] was tested. Which IC50 did it give?
A: 0.06 ± 0.01 nM

Q: How did the IC50 turn out when O=C1CCC(N2Cc3c(SCc4ccc(CCN5CCOCC5)cc4)cccc3C2=O)C(=O)N1 (stereo not drawn) [SIAIS1227049, 3-(4-((4-(2-morpholinoethyl)benzyl)thio)-1-oxoisoindolin-2-yl)piperidine-2,6-dione] was run?
A: 0.1 ± 0.05 nM

Q: For CC1(C)CCC(NCCCCCCCSc2cccc3c2CN(C2CCC(=O)NC2=O)C3=O)CC1 (stereo not drawn) [SIAIS1221029, 3-(4-((7-((4,4-dimethylcyclohexyl)amino)heptyl)thio)-1-oxoisoindolin-2-yl)piperidine-2,6-dione], which IC50 is on record?
A: 0.025 nM

Q: Which IC50 does the source give for O=C1CCC(N2Cc3c(SCCc4ccc(CCN5CCCCC5)cc4)cccc3C2=O)C(=O)N1 (stereo not drawn) [SIAIS1224117, 3-(1-oxo-4-((4-(2-(piperidin-1-yl)ethyl)phenethyl)thio)isoindolin-2-yl)piperidine-2,6-dione] here?
A: 0.19 ± 0.01 nM

Q: Which IC50 does the source give for O=C1CCC(N2Cc3c(SCc4ccc(CNC(C5CC5)C5CC5)o4)cccc3C2=O)C(=O)N1 (stereo not drawn) [SIAIS313150, 3-(4-(((5-(((dicyclopropylmethyl)amino)methyl)furan-2-yl)methyl)thio)-1-oxoisoindolin-2-yl)piperidine-2,6-dione] here?
A: 0.7 ± 0.27 nM

Q: With O=C1CCC(N2Cc3c(SCCCCCCCNC4CC4)cccc3C2=O)C(=O)N1 (stereo not drawn) [SIAIS1222105, 3-(4-((7-(cyclopropylamino)heptyl)thio)-1-oxoisoindolin-2-yl)piperidine-2,6-dione] as the compound, how does the IC50 read?
A: 0.181 nM

Q: O=C1CCC(N2Cc3c(SCc4csc(CN5CCCCCC5)n4)cccc3C2=O)C(=O)N1 (stereo not drawn) [SIAIS313165, 3-(4-(((2-(azepan-1-ylmethyl)thiazol-4-yl)methyl)thio)-1-oxoisoindolin-2-yl)piperidine-2,6-dione] was tested. Which IC50 did it give?
A: 2.77 ± 1.12 nM

Q: Which IC50 does the source give for O=C1CCC(N2Cc3c(SCc4ccc(CN5CCCCCC5)o4)cccc3C2=O)C(=O)N1 (stereo not drawn) [SIAIS313135, 3-(4-(((5-(azepan-1-ylmethyl)furan-2-yl)methyl)thio)-1-oxoisoindolin-2-yl)piperidine-2,6-dione] here?
A: 2.62 ± 0.94 nM

Q: With CN1C(=O)CCC(N2Cc3c(SCc4ccc(CN5CCCCC5)cc4)cccc3C2=O)C1=O (stereo not drawn) [SIAIS1224101, 1-methyl-3-(1-oxo-4-((4-(piperidin-1-ylmethyl)benzyl)thio)isoindolin-2-yl)piperidine-2,6-dione] as the compound, how does the IC50 read?
A: 287 nM

Q: O=C1CCC(N2Cc3c(SCCCCCCCN[C@@H]4CN5CCC4CC5)cccc3C2=O)C(=O)N1 (stereo partly drawn) [SIAIS1224035, 3-(1-oxo-4-((7-(((S)-quinuclidin-3-yl)amino)heptyl)thio)isoindolin-2-yl)piperidine-2,6-dione] was tested. Which IC50 did it give?
A: 15.1 nM

Q: For O=C1CCC(N2C(=O)c3cccc(SCCCc4ccc(CN5CCCCC5)cc4)c3C2=O)C(=O)N1 (stereo not drawn) [SIAIS1227039, 2-(2,6-dioxopiperidin-3-yl)-4-((3-(4-(piperidin-1-ylmethyl)phenyl)propyl)thio)isoindoline-1,3-dione], which IC50 is on record?
A: 2.49 nM

Q: O=C1CCC(N2Cc3c(SCCCCCCCNCC45CC6CC(CC(C6)C4)C5)cccc3C2=O)C(=O)N1 (stereo not drawn) [SIAIS1220171, 3-(4-((7-(((adamantan-1-yl)methyl)amino)heptyl)thio)-1-oxoisoindolin-2-yl)piperidine-2,6-dione] was tested. Which IC50 did it give?
A: 0.044 ± 0.003 nM
